Active and inactive are the calls of the source. The calls are words filed in the database; no cut-off is given here.
How the values were obtained:
RBL-2H3 [1] = experiment: Antiallergic activity in rat RBL-2H3 cell model assessed as inhibition rate of IgE-mediated degranulation in by measuring […] at 50 uM relative to control; assay type: functional
RBL-2H3 [2] = experiment: Antiallergic activity in rat RBL-2H3 cell model assessed as inhibition rate of IgE-mediated degranulation in by measuring […]; assay type: functional, cell-based
RBL-2H3 [3] = experiment: Cytotoxicity against rat RBL-2H3 cells assessed as cell viability at 5 to 100 uM incubated for 24 hrs by CCK8- assay; assay type: toxicity, cell-based; conditions: rbl-2h3, 24 h, dose 5-100 µM
Mus musculus [4] = experiment: Antiallergic activity against ovalbumin-sensitized food allergic Balb/c mouse model assessed as suppression of spleen enlargement at 10 mg/kg once a day during OVA challenge phase (days 28 to 40) administered by intragastric; assay type: functional, organism-based; conditions: route ig, time 13.0 day
Mus musculus [5] = experiment: Antiallergic activity against ovalbumin-sensitized food allergic Balb/c mouse model assessed as suppression of intestinal edema by measuring reduced intestinal damage at 10 mg/kg once a day during OVA challenge phase (days 28 to 40) administered by intragastric; assay type: functional, organism-based; conditions: route ig, time 13.0 day
Mus musculus [6] = experiment: Antiallergic activity against ovalbumin-sensitized food allergic Balb/c mouse model assessed as decrease in OVA-specific IgE level treated once a day during OVA challenge phase (days 28 to 40) administered by intragastric; assay type: functional, organism-based; conditions: dose 2.5-10 mg/kg, route ig, time 13.0 day
Mus musculus [7] = experiment: Antiallergic activity against ovalbumin-sensitized food allergic Balb/c mouse model assessed as decrease in OVA-specific IgG1 level treated once a day during OVA challenge phase (days 28 to 40) administered by intragastric; assay type: functional, organism-based; conditions: dose 2.5-10 mg/kg, route ig, time 13.0 day
Mus musculus [8] = experiment: Antiallergic activity against ovalbumin-sensitized food allergic Balb/c mouse model assessed as decrease in OVA-specific IgG2a level at 2.5 to 10 mg/kg treated once a day during OVA challenge phase (days 28 to 40) administered by intragastric; assay type: functional, organism-based; conditions: dose 2.5-10 mg/kg, route ig, time 13.0 day
Mus musculus [9] = experiment: Antiallergic activity against ovalbumin-sensitized food allergic Balb/c mouse model assessed as decrease in histamine level at 2.5 to 10 mg/kg treated once a day during OVA challenge phase (days 28 to 40) administered by intragastric; assay type: functional, organism-based; conditions: dose 2.5-10 mg/kg, route ig, time 13.0 day
Mus musculus [10] = experiment: Antiallergic activity against ovalbumin-sensitized food allergic Balb/c mouse model assessed as decrease in mMCP-1 level at 2.5 to 10 mg/kg treated once a day during OVA challenge phase (days 28 to 40) administered by intragastric; assay type: functional, organism-based; conditions: dose 2.5-10 mg/kg, route ig, time 13.0 day
Mus musculus [11] = experiment: Antiallergic activity against ovalbumin-sensitized food allergic Balb/c mouse model assessed as decrease in IL-4 level at 10 mg/kg treated once a day during OVA challenge phase (days 28 to 40) administered by intragastric; assay type: functional, organism-based; conditions: route ig, time 13.0 day
Mus musculus [12] = experiment: Antiallergic activity against ovalbumin-sensitized food allergic Balb/c mouse model assessed as decrease in IFN-gamma level at 10 mg/kg treated once a day during OVA challenge phase (days 28 to 40) administered by intragastric; assay type: functional, organism-based; conditions: route ig, time 13.0 day
Mus musculus [13] = experiment: Antiallergic activity against passive cutaneous anaphylaxis (PCA) reaction BALB/c mouse model assessed as reduction in BSA/IgE-mediated allergic reaction in ear by measuring extravasation of Evans blue dye pretreated IG for 7 days followed administered with anti-DNP-IgE after 24 hrs treated with DNP-BSA by Evans blue dye based microscopic analysis; assay type: functional, organism-based; conditions: dose 2.5-10 mg/kg, time 8.0 day
[14] = Metabolic stability in human liver microsmes assessed as half life measured upto 60 mins by HPLC analysis; assay type: ADME; conditions: liver microsomes
[15] = Metabolic stability in human liver microsmes assessed as half life in presence of NADPH measured upto 60 mins by HPLC analysis; assay type: ADME; conditions: liver microsomes
[16] = Metabolic stability in human liver microsmes assessed as half life in presence of UDPGA measured upto 60 mins by HPLC analysis; assay type: ADME; conditions: liver microsomes
[17] = AUC (0 to 12 hrs) in Sprague-Dawley rat at 10 mg/kg, iv measured upto 12 hrs by mass spectrometry; assay type: ADME, organism-based; conditions: in vivo
[18] = AUC (0 to infinity) in Sprague-Dawley rat at 10 mg/kg, iv measured upto 12 hrs by mass spectrometry; assay type: ADME, organism-based; conditions: in vivo
[19] = Clearance in Sprague-Dawley rat at 10 mg/kg, iv measured upto 12 hrs by mass spectrometry; assay type: ADME, organism-based; conditions: in vivo
[20] = Half life in Sprague-Dawley rat at 10 mg/kg, iv measured upto 12 hrs by mass spectrometry; assay type: ADME, organism-based; conditions: in vivo
[21] = Tmax in Sprague-Dawley rat at 40 mg/kg, po measured upto 12 hrs by mass spectrometry; assay type: ADME, organism-based; conditions: in vivo
[22] = Cmax in Sprague-Dawley rat at 40 mg/kg, po measured upto 12 hrs by mass spectrometry; assay type: ADME, organism-based; conditions: in vivo
[23] = AUC (0 to 12 hrs) in Sprague-Dawley rat at 40 mg/kg, po measured upto 12 hrs by mass spectrometry; assay type: ADME, organism-based; conditions: in vivo
[24] = AUC (0 to infinity) in Sprague-Dawley rat at 40 mg/kg, po measured upto 12 hrs by mass spectrometry; assay type: ADME, organism-based; conditions: in vivo
[25] = Clearance in Sprague-Dawley rat at 40 mg/kg, po measured upto 12 hrs by mass spectrometry; assay type: ADME, organism-based; conditions: in vivo
[26] = Half life in Sprague-Dawley rat at 40 mg/kg, po measured upto 12 hrs by mass spectrometry; assay type: ADME, organism-based; conditions: in vivo
[27] = Oral bioavailability in Sprague-Dawley rat at 40 mg/kg measured upto 12 hrs by mass spectrometry; assay type: ADME, organism-based; conditions: in vivo

## COC(=O)[C@]1(Cc2ccc(O)c(CC=C(C)C)c2)OC(=O)C(OC)=C1c1ccc(O)cc1
RBL-2H3 [1]
  inhibition at 50 µM: 33.2%

## C=CCOC1=C(c2ccc(OCC=C)cc2)[C@](Cc2ccc(O)c(CC=C(C)C)c2)(C(=O)OC)OC1=O
RBL-2H3 [1]
  inhibition at 50 µM: 8.95%

## COC(=O)[C@]1(Cc2ccc(O)c(CCC(C)C)c2)OC(=O)C(O)=C1c1ccc(O)cc1
RBL-2H3 [1]
  inhibition at 50 µM: 47.9%

## COC(=O)[C@]1(Cc2ccc(OC(C)=O)c(CC=C(C)C)c2)OC(=O)C(OC(C)=O)=C1c1ccc(O)cc1
RBL-2H3 [1]
  inhibition at 50 µM: 27.8%

## CN1CCC(=C2c3ccccc3CC(=O)c3sccc32)CC1 [KETOTIFEN]
RBL-2H3 [2]
  IC50: 27.9 µM

## COC(=O)[C@]1(Cc2ccc3c(c2)CCC(C)(C)O3)OC(=O)C(O)=C1c1ccc(O)cc1
RBL-2H3 [1]
  inhibition at 50 µM: 10.1%

## CC(C)=CCc1cc(C[C@@]2(C=O)OC(=O)C(O)=C2c2ccc(O)cc2)ccc1O
RBL-2H3 [1]
  inhibition: Active
  inhibition at 50 µM: 63.9%

## C=CCOC1=C(c2ccc(OCC=C)cc2)[C@](Cc2ccc(OCC=C)c(CC=C(C)C)c2)(C(=O)OC)OC1=O
RBL-2H3 [1]
  inhibition at 50 µM: 18.4%

## COC(=O)[C@]1(Cc2ccc(OC)c(CC=C(C)C)c2)OC(=O)C(OC)=C1c1ccc(OC)cc1
RBL-2H3 [1]
  inhibition at 50 µM: 38.7%

## COC(=O)[C@]1(Cc2ccc(OC(C)=O)c(CC=C(C)C)c2)OC(=O)C(OC(C)=O)=C1c1ccc(OC(C)=O)cc1
RBL-2H3 [1]
  inhibition at 50 µM: 11.7%

## C=CCOC1=C(c2ccc(O)cc2)[C@](Cc2ccc(O)c(CC=C(C)C)c2)(C(=O)OC)OC1=O
RBL-2H3 [1]
  inhibition at 50 µM: > 90%

## COC(=O)[C@]1(Cc2ccc(OCC=C(C)C)c(CC=C(C)C)c2)OC(=O)C(OCC=C(C)C)=C1c1ccc(OCC=C(C)C)cc1
RBL-2H3 [1]
  inhibition at 50 µM: 15.6%

## COC(=O)[C@]1(Cc2ccc(O)c(CC=C(C)C)c2)OC(=O)C(OC(C)=O)=C1c1ccc(O)cc1
RBL-2H3 [1]
  inhibition at 50 µM: 33.5%

## COC(=O)[C@]1(Cc2ccc(O)c(CC=C(C)C)c2)OC(=O)C(OC(=O)C(C)C)=C1c1ccc(OC(=O)C(C)C)cc1
RBL-2H3 [1]
  inhibition at 50 µM: 21.3%

## CC(=O)[C@]1(Cc2ccc(O)c(CC=C(C)C)c2)OC(=O)C(O)=C1c1ccc(O)cc1
RBL-2H3 [1]
  inhibition at 50 µM: > 90%
RBL-2H3 [2]
  IC50: 6.7 µM
  inhibition: Dose-Dependent Effect
RBL-2H3 [3]
  Activity: Non-Toxic
Mus musculus [4]
  Activity: Active
Mus musculus [5]
  Activity: Active
Mus musculus [6]
  Activity: Dose-Dependent Effect
Mus musculus [7]
  Activity: Dose-Dependent Effect
Mus musculus [8]
  Activity: inactive
Mus musculus [9]
  Activity: Active
Mus musculus [10]
  Activity: Active
Mus musculus [11]
  Activity: Active
Mus musculus [12]
  Activity: Active
Mus musculus [13]
  Activity: Dose-Dependent Effect
[14]
  half-life: 8.88 h
[15]
  half-life: 3.73 h
[16]
  half-life: 2.22 h
[17]
  AUC(0-t) at 12 h: 4090 ng·h/mL
[18]
  AUC(0-inf): 4120 ng·h/mL
[19]; Sprague-Dawley
  clearance: 45 mL/min/kg
[20]
  half-life: 2.2 h
[21]
  Tmax: 0.2 h
[22]
  Cmax: 6110 ng/mL
[23]
  AUC(0-t) at 12 h: 6540 ng·h/mL
[24]
  AUC(0-inf): 7560 ng·h/mL
[25]
  CL/F: 90 mL/min/kg
[26]
  half-life: 4.1 h
[27]
  bioavailability: 45.9%

## COC(=O)[C@]1(Cc2ccc(O)c(CC=C(C)C)c2)OC(=O)C(OC)=C1c1ccc(OC)cc1
RBL-2H3 [1]
  inhibition at 50 µM: 17.1%

## COC(=O)[C@]1(Cc2ccc(OC(=O)C(C)C)c(CC=C(C)C)c2)OC(=O)C(OC(=O)C(C)C)=C1c1ccc(OC(=O)C(C)C)cc1
RBL-2H3 [1]
  inhibition at 50 µM: 6.93%

## COC(=O)[C@]1(Cc2ccc(O)c(CC=C(C)C)c2)OC(=O)C(OC(=O)C(C)C)=C1c1ccc(O)cc1
RBL-2H3 [1]
  inhibition at 50 µM: 36.7%

## CC(C)=CCc1cc(C[C@@]2(CO)OC(=O)C(O)=C2c2ccc(O)cc2)ccc1O
RBL-2H3 [1]
  inhibition: inactive
  inhibition at 50 µM: 27.7%

## COC(=O)[C@]1(Cc2ccc(O)c(CC=C(C)C)c2)OC(=O)C(O)=C1c1ccc(O)cc1
RBL-2H3 [1]
  inhibition at 50 µM: > 90%
RBL-2H3 [2]
  IC50: 13.5 µM
[14]
  half-life: 0.283 h
[15]
  half-life: 0.326 h
[16]
  half-life: 0.292 h
[17]
  AUC(0-t) at 12 h: 21.7 ng·h/mL
[18]
  AUC(0-inf): 27.8 ng·h/mL
[19]; iv, 10 mg/kg, 12 h
  CL: 7202 mL/min/kg
[20]
  half-life: 4.1 h
[21]
  Tmax: 0.7 h
[22]
  Cmax: 10.8 ng/mL
[23]
  AUC(0-t) at 12 h: 28.9 ng·h/mL
[24]
  AUC(0-inf): 36.9 ng·h/mL
[26]
  half-life: 4.7 h
[27]
  bioavailability: 33.2%
